Laboratory results: patent US20210071180A1, “MICRORNA 584-5P COMPOSITIONS AND METHODS FOR TREATING CANCER” (BOARD OF REGENTS, THE UNIVERSY OF TEXAS SYSTEM, priority 2018, published 2021)

How the values were obtained:
MB cells [1] = experiment: Immunofluorescence count of mitotic cells; type: cell-based; conditions: vs scrambled-transfected cells
Procedure: To gain more insight into the tumor-suppressing and VCR-sensitizing activities of miR-584-5p, it was determined how the miR-584-5p mimic affected cell cycle progression of MB cells. […] Bar graphs show DNA histograms quantified using the FlowJo software. In FIG. 9A, the p-values were determined by two-way ANOVA followed by Tukey's multiple-comparisons test. Error bars represent mean±SEM. […] In FIG. 9B, the p-values were calculated using standard Student t-tests. Error bars represent mean±SEM. […] Next, it was determined whether miR-584-5p's effect on cell cycle progression may be mediated via its target genes eIF4E3/HDAC1. […] Bar graphs show dot plots quantified using the FlowJo software. Next, it was tested whether miR-584-5p-induced cell cycle arrest led to apoptosis of MB cells. […] In FIG. 8C, the bar graphs reflect DNA histograms quantified using the FlowJo software and in FIG. 8D and FIG. 9C, the bar graphs show dot plots quantified using the FlowJo software. The p-values for panels 8A-D and FIG. 9C were determined by two-way ANOVA followed by Tukey's multiple-comparisons test. Error bars represent mean±SEM. ****, p<0.0001; ***, p<0.001; **, p<0.01; *, p<0.05.
Immunofluorescence and Western blot analysis Immunofluorescence analyses was carried out on cells fixed in 4% paraformaldehyde (Imam, J. S. et al. PLoS One 7, e52397, (2012)). […]

MB cells [2] = experiment: Cell viability, proliferation, clonogenic and transwell migration assays; type: cell-based
Procedure: Cell viability and proliferation assays. MB cells transfected with miR-584-5p mimic or target siRNAs were seeded in 96-well plates at a density of 5×10^3 for D556Med and DAOY or 10×10^3 for D425Med and D458Med per well for 72 hours. Cell viability was assessed using CellTiter-Glo (Promega) or alamarBlue (Thermofisher), and proliferation was assessed using CyQuant Direct Cell Proliferation Assay (Thermofisher).
Next, the in vitro results were validated by determining the function of miR-584-5p in MB and by using an in vivo tumor xenograft model to test the efficacy of miR-584-5p-VCR combination therapy. […] In FIG. 3A, cell proliferation was measured by CyQuant Cell Proliferation Assay. The p-values were determined using standard Student t-tests. […] In FIG. 3B, cell proliferation was measured using an IncuCyte phase-only processing module. […] The p-value was calculated using a standard Student t-test. […] The p-value was calculated using a standard Student t-test. […] In FIG. 4F, The p-value was calculated using a standard Student t-test. […] Cell proliferation was measured using an IncuCyte phase-only processing module. ****, p<0.0001. […]
To determine whether miR-584-5p imparts its tumor-suppressing and VCR-sensitizing effect by downregulating HDAC1/eIF4E3 levels in MB, the function of eIF4E3 and HDAC1 in MB was investigated. […] The p-values in FIGS. 6C and D were calculated using a standard Student t-test. […]

## miR-584-5p: microRNA mimic; nucleotide sequence UUAUGGUUUGCCUGGGACUGAG (SEQ ID NO: 1); purchased from Thermofisher (chemistry not given here)
MB cells [1]
  mitotic cells: significantly more mitotic cells
MB cells [2]; D556Med cells cotransfected with eIF4E3/HDAC1 expression vector and miR-584-5p mimic
  long-term viability and migration elicited by HDAC1/eIF4E3 overexpression: rescued the increased long-term viability and migration
MB cells [2]; vs miR-NC
  short-term and long-term viability as well as migration of MB cells: reduced
